Values after ≈ are worked out from the molar mass of the structure shown. Like-named read-outs stand apart in the source and are kept apart here.
Tests used:
E.f987 = test: Antibacterial screening (MIC) of compounds of Example 2, E.f987; assay type: cell-based, Enterococcus faecium; settings: for Antibacterial activity μg/mL, E.f987: Example 2 compounds, enterococci strain E.f987
E.f820 = test: Antibacterial screening (MIC) of compounds of Example 2, E.f820; assay type: cell-based, Enterrococci faecium; settings: for Antibacterial activity μg/mL, E.f820: Example 2 compounds, fully vancomycin-resistant strain E.f820
Procedure: (§1) • All assays used the Staphylococcus aureus strain ATCC 6538P. • Assays described in Chapter 5 additionally used the vancomycin-resistant enterococci and vancomycin-sensitive enterococci strains Ef243, Ef449, Ef820 and Ef487. Culture Media • Mueller-Hinton Broth Medium (MHB): MHB (Oxoid CM405) was prepared with final concentrations of […] MgCl2 and 2 μg/mL CaCl2. Culture medium was pre-warmed for approximately 2-3 h at 37° C. before use. • Mueller-Hinton Agar Medium (MHA): MMB containing 1.5% Agar (Merck Agar 1.01614). Maintenance of Bacteria • From a thawed cryovial, the bacteria was streaked onto MHA and the plate incubated overnight at 37° C. • From this plate, 10 cryovials were prepared by looping several colonies into 0.5 mL of 20% glycerol solution. The cryovials were immediately stored at −140° C. Preparation of Seed Cultures • A cryovial was removed from −140° C. storage and thawed at room temperature. • An MHA plate was streaked with a loopful of bacterial suspension and incubated overnight at 37° C. to create a parent plate (P1). • A daughter plate (D1) was streaked from the parent plate and incubated overnight at 37° C. […] The second parent plate (P2) was used to generate two additional daughter plates using the procedure outlined above before being discarded. • Cryovials were used twice to prepare parent plates (P1 and P2) before being discarded. […] A vancomycin control set (triplicate) and a compound negative control set (triplicate) were also included on each plate (FIG. 1). • The inoculated culture medium was incubated at 37° C. for 30 min, with shaking at 130 rpm. • Using a multichannel pipette, the contents of the first row were mixed before 50 μL was transferred to the second row. The pipette tips were changed and the process repeated by 50 μL of the mixed broth solutions in the second row being transferred to the third row. This process was repeated until the last row contained either the diluted test compound or a control (vancomycin or compound-negative). […] Antibacterial Testing of Compounds of Example 2 Introduction
(§2) The specific testing procedures and protocols are outlined in the section “Antibacterial Screening Methodology for the Compounds of Example 2”.
(§3) Vancomycin was used as the standard/control.

[1] = test system: Staphylococcus aureus strain ATCC 6538P; test: Antibacterial screening (MIC) of compounds of Example 2, S. aureus, Mueller-Hinton broth; assay type: cell-based; settings: for MIC: Staphylococcus aureus, ATCC6538P
Procedure: Antibacterial Screening Methodology for Compounds of Example 2
as §1, §2
The antibacterial activity results are measured by minimum inhibitory concentration (MIC), which is the lowest concentration of compound necessary to prevent bacterial growth.

E.f243 = test: Antibacterial screening (MIC) of compounds of Example 2, E.f243; assay type: cell-based, Enterococcus faecium
Procedure: as §1, §2, §3

HIV integrase enzyme = target: T1, HIV integrase enzyme (Human immunodeficiency virus type 1 group M subtype B, UniProt P04585); test: Cross testing of antibacterial compounds for ability to inhibit the HIV integrase enzyme; assay type: biochemical; settings: Example 2 compounds; compared with lead 88
T1 construct: against the HIV integrase enzyme
Procedure: The results for the screening of the four target molecules 165-168 against the HIV integrase enzyme yielded some encouraging results which supported the proposed mechanism of binding in the active binding trench of the HIV integrase enzyme. The testing procedure for the four target compounds differed from the original screening protocols employed. The original screening measured inhibition against the 3′ processing function of the enzyme at the fixed concentration of 50 μg/mL, whereas the four target molecules were tested in an assay adapted from a literature procedure,^107 which measures inhibition against the 3′ strand transfer function of the enzyme. This allows a result to be obtained as an inhibition constant (IC50) concentration, which is the standard measurement of inhibition within the literature. Along with the four target molecules, 88 was also re-tested in the 3′ strand transfer assay to determine the IC50 for direct comparison with the literature.
After these compounds and the computer modelling studies had become established, all compounds that were sent for screening in the antibacterial assay were then also cross tested for their ability to inhibit the HIV integrase enzyme.

E.f449 = test: Antibacterial screening (MIC) of compounds of Example 2, E.f449; assay type: cell-based, Enterococcus faecium
Procedure: as §1, §2, §3

[2] = test system: #987 E. faecium van B ST39; test: Antibacterial assay (MIC), VRE strain #987, Enterococossel Broth, Example 1; assay type: cell-based, Enterococcus faecium; settings: Enterococcus faecium, VRE, 24 h, read-out: 987 (minimum inhibitory concentration)
How it was run: (§4)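 Broth microdilution MIC vs E. faecium VRE strains grown in Enterococossel broth, inoculum 1/1000 of overnight culture; compounds tested in triplicate at 125–0.98 ug/ml (2-fold), top-well DMSO 2.5%. Plates incubated 24 h at 37 °C; MIC read as clear well, no pellet and no black colouring of medium.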

[3] = test system: #243 E. faecium van B ST17; test: Antibacterial assay (MIC), VRE strain #243, Enterococossel Broth, Example 1; assay type: cell-based, Enterococcus faecium; settings: Enterococcus faecium, VRE, 24 h, read-out: 243 (minimum inhibitory concentration)
How it was run: (§5)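 Broth microdilution in Enterococossel Broth, triplicate twofold dilutions from 125 to 0.98 ug/ml, inoculated with 1/1000-diluted overnight E. faecium van B culture. Incubated 24 h at 37° C with slow rotation. MIC read as lowest concentration without pellet or black medium; first-row DMSO 2.5%.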

[4] = test system: E. faecium (VRE, vanA genes); settings: typical for VRE E. faecium in hospitals; cited from earlier work
MRSA isolates = settings: 43 MRSA isolates from adults with community respiratory infections; cited from earlier work
[5] = test system: Staphylococcus aureus (ATCC 6538P); test: Antibacterial assay (MIC), Staphylococcus aureus ATCC 6538P, Luria Broth, Example 1; assay type: cell-based; settings: Staphylococcus aureus, ATCC6538P, 24 h, read-out: Sa (minimum inhibitory concentration)
How it was run: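 Broth microdilution in Luria Broth, 2-fold series from 125 to 0.98 ug/ml in triplicate, with 1/1000-diluted overnight culture; up to 2.5% DMSO. Incubated 24 hrs at 37° C with slow rotation; MIC read as lowest concentration giving a clear well without bacterial pellet.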

[6] = test system: #449 E. faecium van B ST17; test: Antibacterial assay (MIC), VRE strain #449, Enterococossel Broth, Example 1; assay type: cell-based, Enterococcus faecium; settings: Enterococcus faecium, VRE, 24 h, read-out: 449 (minimum inhibitory concentration)
How it was run: as §5

[7] = test system: #820 E. faecium van A ST17; test: Antibacterial assay (MIC), VRE strain #820, Enterococossel Broth, Example 1; assay type: cell-based, Enterococcus faecium; settings: Enterococcus faecium, VRE, 24 h, read-out: 820 (minimum inhibitory concentration)
How it was run: as §4

[8] = test system: strains of MRSA which have intermediate resistance to glycopeptides; settings: cited from earlier work
S. aureus = settings: when penicillin was introduced in mid-1940s; cited from earlier work
[9] = test system: E. faecium isolate (VanD-type); settings: VanD-type E. faecium isolate from the United States, constitutively resistant; cited from earlier work

## C=CCOc1ccc2ccccc2c1-c1c(OCC(=O)N[C@H](CCCNC(=N)N)C(=O)Nc2cccc(C(=O)NO)c2)ccc2ccccc12.Cl
other
  melting point: 158 to 160 °C

## CCCOc1ccc2ccccc2c1-c1c(OCC(=O)N[C@H](CCCN)C(=O)Nc2cccc(C(=O)NO)c2)ccc2ccccc12.Cl [Compound 163]
E.f987
  Antibacterial activity μg/mL, E.f987: >125 µg/mL
E.f820
  Antibacterial activity μg/mL, E.f820: >125 µg/mL
[1]; Example 2 compounds (linear cationic peptides), S. aureus, vancomycin-susceptible strain
  Antibacterial activity μg/mL, S.a: 15.6 µg/mL
E.f243; Example 2 compounds, enterococci strain E.f243
  Antibacterial activity μg/mL, E.f243: >125 µg/mL
HIV integrase enzyme
  ability to inhibit the HIV integrase enzyme (in words): almost as active as the original lead 88
E.f449; Example 2 compounds, enterococci strain E.f449
  Antibacterial activity μg/mL, E.f449: >125 µg/mL

## CN[C@H](CC(C)C)C(=O)N[C@H]1C(=O)N[C@@H](CC(N)=O)C(=O)N[C@H]2C(=O)N[C@H]3C(=O)N[C@H](C(=O)N[C@H](C(=O)O)c4cc(O)cc(O)c4-c4cc3ccc4O)[C@H](O)c3ccc(c(Cl)c3)Oc3cc2cc(c3O[C@@H]2O[C@H](CO)[C@@H](O)[C@H](O)[C@H]2O[C@H]2C[C@](C)(N)[C@H](O)[C@H](C)O2)Oc2ccc(cc2Cl)[C@H]1O [Vancomycin, vancomycin, reference compound]
[2]
  MIC: < 0.98 µg/mL
[3]
  MIC: < 0.98 µg/mL
[4]
  minimum inhibitory concentrations (MICs): > 128 µg/mL
MRSA isolates
  susceptibility rates: 100%
E.f987; Enterococcus faecium, read-out: Antibacterial activity μg/mL, E.f987
  MIC: < 0.98 µg/mL
E.f987
  Antibacterial activity μg/mL, E.f987: <0.98 µg/mL
[5]
  MIC: 0.99 to 15.6 µg/mL (≈ 0.683 to 10.8 µM)
E.f820
  Antibacterial activity μg/mL, E.f820: >125 µg/mL
E.f820; read-out: Antibacterial activity μg/mL, E.f820
  MIC: > 125 µg/mL
[6]
  MIC: 15.7 to 62.5 µg/mL (≈ 10.8 to 43.1 µM)
[7]
  MIC: > 62.6 µg/mL
[1]; 18 h, read-out: Antibacterial activity (MIC μg/mL)
  MIC: 1.25 to 2.5 µg/mL (≈ 0.863 to 1.73 µM)
[1]; read-out: Antibacterial activity μg/mL, S.a
  MIC: 1.95 µg/mL (≈ 1.35 µM)
E.f243; Enterococcus faecium, read-out: Antibacterial activity μg/mL, E.f243
  MIC: 1.95 µg/mL (≈ 1.35 µM)
E.f449; Enterococcus faecium, read-out: Antibacterial activity μg/mL, E.f449
  MIC: 62.5 µg/mL (≈ 43.1 µM)

## CC[C@H]1OC(=O)[C@H](C)[C@@H](O[C@H]2C[C@@](C)(OC)[C@@H](O)[C@H](C)O2)[C@H](C)[C@@H](O[C@@H]2O[C@H](C)C[C@H](N(C)C)[C@H]2O)[C@](C)(O)C[C@@H](C)C(=O)[C@H](C)[C@@H](O)[C@]1(C)O [erythromycin]
MRSA isolates
  susceptibility rates: 12%

## Oc1cc(Cl)ccc1Oc1ccc(Cl)cc1Cl [triclosan]
[8]; MRSA with intermediate resistance to glycopeptides, decreased susceptibility to biocides
  minimal bactericidal concns. (MBCs), increased value: 3.12 mg 1-1
[8]; value from which the MBC increased
  minimal bactericidal concns. (MBCs), starting value: 0.002 mg 1-1

## gentamicin
MRSA isolates
  susceptibility rates: 86%

## penicillin
S. aureus
  susceptible S. aureus: ~94%

## teicoplanin
[4]
  minimum inhibitory concentrations (MICs): > 16 µg/mL
[9]
  MIC: 4 µg/mL
